Assays:
Experiment in all cases: Kinase Profiler 10 μM panel
CDK13/cyclinK(h) = CDK13/cyclinK(h) (Homo sapiens (Human), UniProt Q14004); type: biochemical
Protocol: (§1) In vitro kinase assays were conducted using Kinase Profiler services provided by Eurofins. The experimental method was as follows: the small molecule compound to be tested (0.001-10 μM), the protein kinase to be tested were incubated with a buffer containing substrate, 10 mM magnesium acetate, and [γ-^33P-ATP], the reaction was started by adding Mg\TPmix, after incubation for a period of time at room temperature, a 3% phosphate solution was added to the buffer to stop the reaction. Subsequently, 10 μL of the reaction mixture was quantitatively pipetted onto P30 filter paper, which was washed three times with 75 mM phosphate solution and then once with methanol. The P30 filter paper was air-dried and scintillation fluid was added for scintillation counting.

AAK1(h) = AAK1(h) (Homo sapiens (Human), UniProt Q2M2I8)
Protocol: as §1

Abl (Q252H)(h) = Abl (Q252H)(h) (Homo sapiens (Human), UniProt P00519, Q252H)
Protocol: as §1

Flt3(D835Y)(h) = Flt3(D835Y)(h) (Homo sapiens (Human), UniProt P36888, D835Y)
Protocol: as §1

GCK(h) = GCK(h) (Homo sapiens (Human), UniProt Q12851)
Protocol: as §1

GRK6(h) = GRK6(h) (Homo sapiens (Human), UniProt P43250)
Protocol: as §1

Blk(h) = Blk(h) (Homo sapiens (Human), UniProt P51451)
Chain of Blk(h) (P51451 whole entry): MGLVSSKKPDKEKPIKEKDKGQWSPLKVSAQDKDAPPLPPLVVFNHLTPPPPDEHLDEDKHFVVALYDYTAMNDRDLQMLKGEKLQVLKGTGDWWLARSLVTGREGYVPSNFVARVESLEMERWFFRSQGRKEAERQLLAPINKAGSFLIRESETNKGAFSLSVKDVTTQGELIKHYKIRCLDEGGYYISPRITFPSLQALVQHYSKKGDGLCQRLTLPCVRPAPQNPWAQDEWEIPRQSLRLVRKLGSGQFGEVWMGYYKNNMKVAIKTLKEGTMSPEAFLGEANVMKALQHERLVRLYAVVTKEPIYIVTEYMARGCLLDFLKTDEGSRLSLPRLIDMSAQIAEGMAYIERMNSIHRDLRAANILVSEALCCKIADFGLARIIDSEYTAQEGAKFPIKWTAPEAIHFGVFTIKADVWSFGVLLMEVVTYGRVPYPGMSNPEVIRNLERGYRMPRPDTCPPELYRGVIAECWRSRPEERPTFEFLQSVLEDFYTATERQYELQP
Protocol: as §1

Bmx(h) = Bmx(h) (Homo sapiens (Human), UniProt P51813)
Chain of Bmx(h) (P51813 whole entry): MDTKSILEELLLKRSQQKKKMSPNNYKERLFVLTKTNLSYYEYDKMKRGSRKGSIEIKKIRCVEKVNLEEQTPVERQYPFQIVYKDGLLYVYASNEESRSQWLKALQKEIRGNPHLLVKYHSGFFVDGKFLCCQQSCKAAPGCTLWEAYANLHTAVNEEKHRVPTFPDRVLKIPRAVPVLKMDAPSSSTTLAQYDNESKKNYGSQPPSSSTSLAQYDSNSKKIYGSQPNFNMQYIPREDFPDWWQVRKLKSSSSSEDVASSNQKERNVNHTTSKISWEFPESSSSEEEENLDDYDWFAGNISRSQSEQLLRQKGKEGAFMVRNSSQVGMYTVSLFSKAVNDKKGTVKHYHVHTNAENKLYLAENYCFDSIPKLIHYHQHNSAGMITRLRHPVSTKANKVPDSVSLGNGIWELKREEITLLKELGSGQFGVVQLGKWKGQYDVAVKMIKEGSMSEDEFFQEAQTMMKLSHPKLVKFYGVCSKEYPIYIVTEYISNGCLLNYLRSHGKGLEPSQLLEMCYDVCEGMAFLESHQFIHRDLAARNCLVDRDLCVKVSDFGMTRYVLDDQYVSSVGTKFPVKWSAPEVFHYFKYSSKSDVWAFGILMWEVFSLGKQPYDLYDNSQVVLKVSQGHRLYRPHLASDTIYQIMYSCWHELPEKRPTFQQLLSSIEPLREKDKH
Protocol: as §1

IR(h), activated = IR(h), activated (Homo sapiens (Human), UniProt P06213)
Chain of IR(h), activated (P06213 1005-1310 limits assumed): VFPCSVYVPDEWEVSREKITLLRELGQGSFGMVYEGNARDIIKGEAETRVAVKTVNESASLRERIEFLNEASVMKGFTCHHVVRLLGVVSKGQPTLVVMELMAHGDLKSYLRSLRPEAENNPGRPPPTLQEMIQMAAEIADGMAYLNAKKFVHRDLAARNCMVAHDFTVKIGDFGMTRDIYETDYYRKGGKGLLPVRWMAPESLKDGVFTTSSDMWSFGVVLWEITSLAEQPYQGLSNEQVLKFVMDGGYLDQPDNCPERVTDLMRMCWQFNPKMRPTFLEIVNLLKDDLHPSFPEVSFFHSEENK
Protocol: as §1

BrSK2(h) = BrSK2(h) (Homo sapiens (Human), UniProt Q8IWQ3)
Protocol: as §1

IRAK4(h) = IRAK4(h) (Homo sapiens (Human), UniProt Q9NWZ3)
Protocol: as §1

CaMKI(h) = CaMKI(h) (Homo sapiens (Human), UniProt Q14012)
Protocol: as §1

CaMKIIα(h) = CaMKIIα(h) (Homo sapiens (Human), UniProt Q9UQM7)
Protocol: as §1

CaMKK2(h) = CaMKK2(h) (Homo sapiens (Human), UniProt Q96RR4)
Protocol: as §1

CDK4/cyclinD3(h) = CDK4/cyclinD3(h) (Homo sapiens (Human), UniProt P11802)
Protocol: as §1

Rse(h) = Rse(h) (Homo sapiens (Human), UniProt Q06418)
Protocol: as §1

MARK1(h) = MARK1(h) (Homo sapiens (Human), UniProt Q9P0L2)
Protocol: as §1

CDKL3(h) = CDKL3(h) (Homo sapiens (Human), UniProt Q8IVW4)
Chain of CDKL3(h) (Q8IVW4 whole entry): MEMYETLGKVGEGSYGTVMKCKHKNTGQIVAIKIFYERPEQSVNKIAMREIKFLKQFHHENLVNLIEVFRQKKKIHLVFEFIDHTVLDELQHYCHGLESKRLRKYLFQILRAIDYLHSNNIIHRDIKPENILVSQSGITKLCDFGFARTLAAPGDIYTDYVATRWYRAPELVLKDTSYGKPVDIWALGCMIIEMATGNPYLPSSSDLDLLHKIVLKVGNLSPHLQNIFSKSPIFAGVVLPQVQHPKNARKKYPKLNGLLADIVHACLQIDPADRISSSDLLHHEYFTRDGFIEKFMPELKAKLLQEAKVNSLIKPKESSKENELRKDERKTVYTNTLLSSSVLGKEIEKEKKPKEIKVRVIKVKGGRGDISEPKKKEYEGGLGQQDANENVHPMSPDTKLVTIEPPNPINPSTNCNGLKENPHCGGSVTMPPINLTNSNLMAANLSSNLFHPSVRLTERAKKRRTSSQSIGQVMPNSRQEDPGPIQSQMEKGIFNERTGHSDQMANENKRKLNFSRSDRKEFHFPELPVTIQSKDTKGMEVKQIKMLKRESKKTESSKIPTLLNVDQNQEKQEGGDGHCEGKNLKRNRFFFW
Protocol: as §1

SAPK2b(h) = SAPK2b(h) (Homo sapiens (Human), UniProt Q15759)
Protocol: as §1

CK1γ2(h) = CK1γ2(h) (Homo sapiens (Human), UniProt P78368)
Chain of CK1γ2(h) (P78368 whole entry): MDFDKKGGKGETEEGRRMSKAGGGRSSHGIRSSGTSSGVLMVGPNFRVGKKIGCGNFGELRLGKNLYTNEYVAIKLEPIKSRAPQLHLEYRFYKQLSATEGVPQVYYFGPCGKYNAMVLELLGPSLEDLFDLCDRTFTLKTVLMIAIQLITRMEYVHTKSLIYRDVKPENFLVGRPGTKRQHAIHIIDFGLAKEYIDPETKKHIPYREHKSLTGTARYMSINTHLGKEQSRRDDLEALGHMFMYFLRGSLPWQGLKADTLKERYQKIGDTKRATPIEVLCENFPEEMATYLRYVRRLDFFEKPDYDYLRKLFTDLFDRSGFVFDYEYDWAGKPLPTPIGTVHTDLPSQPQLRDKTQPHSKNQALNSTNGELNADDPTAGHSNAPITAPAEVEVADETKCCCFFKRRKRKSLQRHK
Protocol: as §1

SNRK(h) = SNRK(h) (Homo sapiens (Human), UniProt Q9NRH2)
Protocol: as §1

MLK3(h) = MLK3(h) (Homo sapiens (Human), UniProt Q16584)
Chain of MLK3(h) (Q16584 whole entry): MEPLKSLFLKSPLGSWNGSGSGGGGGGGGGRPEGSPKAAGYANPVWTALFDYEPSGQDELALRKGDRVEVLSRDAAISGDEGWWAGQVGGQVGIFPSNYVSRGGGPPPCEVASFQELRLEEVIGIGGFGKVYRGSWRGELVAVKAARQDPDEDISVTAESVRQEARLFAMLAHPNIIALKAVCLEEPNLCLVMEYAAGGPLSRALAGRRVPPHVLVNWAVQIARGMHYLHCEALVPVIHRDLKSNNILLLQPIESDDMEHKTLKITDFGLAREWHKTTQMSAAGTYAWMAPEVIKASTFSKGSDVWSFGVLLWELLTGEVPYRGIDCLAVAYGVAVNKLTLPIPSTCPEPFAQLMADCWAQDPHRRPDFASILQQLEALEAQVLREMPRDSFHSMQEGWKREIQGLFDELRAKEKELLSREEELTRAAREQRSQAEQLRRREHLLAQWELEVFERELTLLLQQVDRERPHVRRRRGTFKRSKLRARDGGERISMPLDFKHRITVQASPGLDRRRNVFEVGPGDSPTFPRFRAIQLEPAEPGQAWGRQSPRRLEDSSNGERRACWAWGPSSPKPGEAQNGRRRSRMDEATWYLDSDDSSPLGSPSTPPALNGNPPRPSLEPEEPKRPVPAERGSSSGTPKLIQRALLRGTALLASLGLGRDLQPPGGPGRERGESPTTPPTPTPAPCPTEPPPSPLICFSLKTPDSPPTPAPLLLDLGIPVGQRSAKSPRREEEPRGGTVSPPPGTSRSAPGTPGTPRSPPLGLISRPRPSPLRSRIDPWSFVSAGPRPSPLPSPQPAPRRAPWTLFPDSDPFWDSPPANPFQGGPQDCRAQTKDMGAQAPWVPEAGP
Protocol: The experimental method was as follows: the small molecule compound to be tested (0.001-10 μM), the protein kinase to be tested were incubated with a buffer containing substrate, 10 mM magnesium acetate, and [γ-^33P-ATP], the reaction was started by adding Mg\TPmix, after incubation for a period of time at room temperature, a 3% phosphate solution was added to the buffer to stop the reaction. Subsequently, 10 μL of the reaction mixture was quantitatively pipetted onto P30 filter paper, which was washed three times with 75 mM phosphate solution and then once with methanol. The P30 filter paper was air-dried and scintillation fluid was added for scintillation counting.

STK32A(h) = STK32A(h) (Homo sapiens (Human), UniProt Q8WU08)
Protocol: as §1

CLK4(h) = CLK4(h) (Homo sapiens (Human), UniProt Q9HAZ1)
Protocol: as §1

CSRC(h) = CSRC(h) (Homo sapiens (Human), UniProt P12931)
Protocol: as §1

MST3(h) = MST3(h) (Homo sapiens (Human), UniProt Q9Y6E0)
Chain of MST3(h) (Q9Y6E0 whole entry): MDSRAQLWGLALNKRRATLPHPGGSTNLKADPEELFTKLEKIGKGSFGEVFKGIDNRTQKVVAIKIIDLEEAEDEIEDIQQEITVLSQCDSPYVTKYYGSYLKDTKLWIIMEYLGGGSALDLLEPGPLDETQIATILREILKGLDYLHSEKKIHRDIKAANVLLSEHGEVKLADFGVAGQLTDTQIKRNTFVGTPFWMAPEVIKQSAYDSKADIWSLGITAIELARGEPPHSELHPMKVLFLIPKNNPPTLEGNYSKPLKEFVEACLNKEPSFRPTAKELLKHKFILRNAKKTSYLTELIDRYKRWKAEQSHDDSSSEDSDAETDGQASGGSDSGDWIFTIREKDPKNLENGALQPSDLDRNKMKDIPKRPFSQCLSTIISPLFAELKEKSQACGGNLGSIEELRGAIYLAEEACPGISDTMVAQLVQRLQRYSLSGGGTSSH

TAO3(h) = TAO3(h) (Homo sapiens (Human), UniProt Q9H2K8)
DYRK3(h) = DYRK3(h) (Homo sapiens (Human), UniProt O43781)
Protocol: as §1

NEK3(h) = NEK3(h) (Homo sapiens (Human), UniProt P51956)
Chain of NEK3(h) (P51956 whole entry): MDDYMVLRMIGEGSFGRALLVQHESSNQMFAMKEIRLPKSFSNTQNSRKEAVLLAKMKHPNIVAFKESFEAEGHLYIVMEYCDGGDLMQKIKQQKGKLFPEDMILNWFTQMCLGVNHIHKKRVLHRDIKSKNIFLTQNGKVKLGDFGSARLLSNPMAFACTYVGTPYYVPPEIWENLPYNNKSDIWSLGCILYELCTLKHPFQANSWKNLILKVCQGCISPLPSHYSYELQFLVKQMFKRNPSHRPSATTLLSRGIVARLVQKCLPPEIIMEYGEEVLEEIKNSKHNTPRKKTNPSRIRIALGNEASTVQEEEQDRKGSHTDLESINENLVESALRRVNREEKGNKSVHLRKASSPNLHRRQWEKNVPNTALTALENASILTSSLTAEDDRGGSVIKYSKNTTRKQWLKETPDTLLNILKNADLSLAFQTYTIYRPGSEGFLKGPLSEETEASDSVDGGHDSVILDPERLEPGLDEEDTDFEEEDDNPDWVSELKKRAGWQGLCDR
Protocol: as §1

NLK(h) = NLK(h) (Homo sapiens (Human), UniProt Q9UBE8)
Protocol: as §1

TSSK3(h) = TSSK3(h) (Homo sapiens (Human), UniProt Q96PN8)
Protocol: as §1

EphA3(h) = EphA3(h) (Homo sapiens (Human), UniProt P29320)
Protocol: as §1

ErbB2(h) = ErbB2(h) (Homo sapiens (Human), UniProt P04626)
Protocol: as §1

WNK2(h) = WNK2(h) (Homo sapiens (Human), UniProt Q9Y3S1)
Protocol: as §1

Chain of GRK6(h) (P43250 whole entry): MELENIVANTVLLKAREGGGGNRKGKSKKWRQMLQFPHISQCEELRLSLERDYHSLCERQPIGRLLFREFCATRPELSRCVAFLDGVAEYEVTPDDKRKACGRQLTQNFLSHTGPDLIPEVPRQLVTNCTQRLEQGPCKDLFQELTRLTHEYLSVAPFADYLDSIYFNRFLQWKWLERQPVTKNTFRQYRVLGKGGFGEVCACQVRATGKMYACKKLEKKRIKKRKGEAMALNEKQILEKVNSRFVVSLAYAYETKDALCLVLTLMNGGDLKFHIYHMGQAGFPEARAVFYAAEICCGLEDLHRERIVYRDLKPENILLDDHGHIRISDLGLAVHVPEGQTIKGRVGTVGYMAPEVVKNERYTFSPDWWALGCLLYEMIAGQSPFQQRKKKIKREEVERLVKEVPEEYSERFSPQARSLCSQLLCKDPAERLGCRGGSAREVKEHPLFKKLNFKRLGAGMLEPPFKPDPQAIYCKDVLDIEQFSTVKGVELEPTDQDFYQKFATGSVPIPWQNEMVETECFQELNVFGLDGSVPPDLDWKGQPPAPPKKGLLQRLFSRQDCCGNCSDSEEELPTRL

C[C@H](NC(=O)c1c[nH]c2ccc(-c3ccc4nc(NC(=O)C5CC5)sc4c3)cc12)c1cccc(F)c1 [Compound 34, (S)-5-(2-(cyclopropanecarboxamido)benzo[d]thiazol-6-yl)-N-(1-(3-fluorophenyl)ethyl)-1H-indole-3-carboxamide]
Inhibition ratio (CDK13/cyclinK(h)): 19%
Inhibition ratio (AAK1(h)): 24%
Inhibition ratio (Abl (Q252H)(h)): 97%
Inhibition ratio (Flt3(D835Y)(h)): 82%
Inhibition ratio (GCK(h)): 62%
Inhibition ratio (GRK6(h)): 0%
Inhibition ratio (Blk(h)): 65%
Inhibition ratio (Bmx(h)): 54%
Inhibition ratio (IR(h), activated): 13%
Inhibition ratio (BrSK2(h)): 8%
Inhibition ratio (IRAK4(h)): 15%
Inhibition ratio (CaMKI(h)): 5%
Inhibition ratio (CaMKIIα(h)): 5%
Inhibition ratio (CaMKK2(h)): 34%
Inhibition ratio (CDK4/cyclinD3(h)): −5%
Inhibition ratio (Rse(h)): 69%
Inhibition ratio (MARK1(h)): 6%
Inhibition ratio (CDKL3(h)): 51%
Inhibition ratio (SAPK2b(h)): 12%
Inhibition ratio (CK1γ2(h)): 9%
Inhibition ratio (SNRK(h)): −24%
Inhibition ratio (MLK3(h)): 101%
Inhibition ratio (STK32A(h)): 16%
Inhibition ratio (CLK4(h)): 79%
Inhibition ratio (CSRC(h)): 43%
Inhibition ratio (MST3(h)): 7%
Inhibition ratio (TAO3(h)): 62%
Inhibition ratio (DYRK3(h)): 48%
Inhibition ratio (NEK3(h)): 10%
Inhibition ratio (NLK(h)): 25%
Inhibition ratio (TSSK3(h)): −6%
Inhibition ratio (EphA3(h)): −8%
Inhibition ratio (ErbB2(h)): 10%
Inhibition ratio (WNK2(h)): 38%

C[C@H](NC(=O)c1cn(C)c2ccc(-c3ccn4nc(NC(=O)C5CC5)nc4c3)cc12)c1cccc(F)c1 [Compound 94, (S)-5-(2-(cyclopropanecarboxamido)-[1,2,4]triazolo[1,5-a]pyridin-7-yl)-N-(1-(3-fluorophenyl)ethyl)-1-methyl-1H-indole-3-carboxamide]
Inhibition ratio/% (CDK13/cyclinK(h)): 66%
Inhibition ratio/% (AAK1(h)): 2%
Inhibition ratio/% (Abl (Q252H)(h)): 29%
Inhibition ratio/% (Flt3(D835Y)(h)): 12%
Inhibition ratio/% (GCK(h)): −6%
Inhibition ratio/% (GRK6(h)): 2%
Inhibition ratio/% (Blk(h)): 65%
Inhibition ratio/% (Bmx(h)): 34%
Inhibition ratio/% (IR(h), activated): 35%
Inhibition ratio/% (BrSK2(h)): −2%
Inhibition ratio/% (IRAK4(h)): −11%
Inhibition ratio/% (CaMKI(h)): 49%
Inhibition ratio/% (CaMKIIα(h)): 76%
Inhibition ratio/% (CaMKK2(h)): 63%
Inhibition ratio/% (CDK4/cyclinD3(h)): 4%
Inhibition ratio/% (Rse(h)): 53%
Inhibition ratio/% (MARK1(h)): −13%
Inhibition ratio/% (CDKL3(h)): −5%
Inhibition ratio/% (SAPK2b(h)): 36%
Inhibition ratio/% (CK1γ2(h)): 50%
Inhibition ratio/% (SNRK(h)): 25%
Inhibition ratio/% (MLK3(h)): 102%
Inhibition ratio/% (STK32A(h)): 55%
Inhibition ratio/% (CLK4(h)): 79%
Inhibition ratio/% (CSRC(h)): −17%
Inhibition ratio/% (MST3(h)): 33%
Inhibition ratio/% (TAO3(h)): 6%
Inhibition ratio/% (DYRK3(h)): 10%
Inhibition ratio/% (NEK3(h)): 14%
Inhibition ratio/% (NLK(h)): 16%
Inhibition ratio/% (TSSK3(h)): 0%
Inhibition ratio/% (EphA3(h)): 6%
Inhibition ratio/% (ErbB2(h)): 47%
Inhibition ratio/% (WNK2(h)): 6%
